The text below walks through data of the supplement of paper PMC12613149.

Data set [1] is described as follows: collision cross section (TIMS, N2 drift gas) of the primary ion; higher = larger gas-phase ion size.
Data set [2] in a line: reversed-phase LC retention time (C18, 15 min MeOH gradient); higher = more hydrophobic / later elution.
Where [3] appears, read: ionization mode: ESI+, ion species: [M+H]+.
The mark [4] stands for this setting: ionization mode: ESI-, ion species: [M-H]-.

Molecules are shown by their SMILES.

Turning to `CCCCc1ncc(/C=C(\Cc2cccs2)C(=O)O)n1Cc1ccc(C(=O)O)cc1` [Eprosartan], the values for the collision cross section in data set [1] (setting [3]) and in data set [1] (setting [4]) were 206.28 Å² and 198.36 Å², respectively. In addition, the “reversed-phase LC retention time” value worked out at 11.2 min in data set [2] (setting [3]) and 10 min in data set [2] (setting [4]).

With `CCCCCCCC/C=C\CCCCCCCCCCCC(N)=O` [Erucamide], in data set [1] (setting [3]), the collision cross section was 200.01 Å². Besides, the “reversed-phase LC retention time” value in data set [2] (setting [3]) is 19.6 min.

The compound `CC[C@H]1OC(=O)[C@H](C)[C@@H](O[C@H]2C[C@@](C)(OC)[C@@H](O)[C@H](C)O2)[C@H](C)[C@@H](O[C@@H]2O[C@H](C)C[C@H](N(C)C)[C@H]2O)[C@](C)(O)C[C@@H](C)C(=O)[C@H](C)[C@@H](O)[C@]1(C)O` [Erythromycin] came in with a collision cross section in data set [1] (setting [3]) of 259.69 Å². Moreover, in data set [2] (setting [3]), the “reversed-phase LC retention time” value came out at 13 min.

In data set [1] (setting [4]), `C[C@]12CC[C@@H]3c4ccc(O)cc4CC[C@H]3[C@@H]1C[C@@H](O)[C@@H]2O` [Estriol] yielded a collision cross section of 176.65 Å². Besides, the “reversed-phase LC retention time” value in data set [2] (setting [4]) amounted to 11.4 min.

The compound `CCOP(=S)(OCC)SCSP(=S)(OCC)OCC` [Ethion] had a collision cross section in data set [1] (setting [3]) of 176.99 Å². Further, the “reversed-phase LC retention time” value in data set [2] (setting [3]) was found to be 16.9 min.

`CCOC1Oc2ccc(OS(C)(=O)=O)cc2C1(C)C` (stereo unspecified) [Ethofumesate] registered a collision cross section in data set [1] (setting [3]) of 166.62 Å². Further, the “reversed-phase LC retention time” value in data set [2] (setting [3]) was 13.8 min.

In data set [1] (setting [3]), `CCOC(=O)c1ccc(N(C)C)cc1` [Ethyl 4-(dimethylamino)benzoate] registered a collision cross section of 148.66 Å². For the same compound, in data set [2] (setting [3]), the “reversed-phase LC retention time” value is 14.2 min.

With `CCOC(=O)c1ccc(O)cc1` [Ethylparaben], the collision cross section in data set [1] (setting [4]) was found to be 133.39 Å². Further, the “reversed-phase LC retention time” value in data set [2] (setting [4]) amounted to 11.3 min.

In turn, `COc1cc(C2c3cc4c(cc3C(OC3OC5COC(C)OC5C(O)C3O)C3COC(=O)C23)OCO4)cc(OC)c1O` (stereo unspecified) [Etoposide] gave a collision cross section in data set [1] (setting [3]) of 250.37 Å². Further, in data set [2] (setting [3]), the “reversed-phase LC retention time” value was found to be 11.6 min.

In data set [1] (setting [4]), `COc1cc(C2c3cc4c(cc3C(OC3OC5COC(C)OC5C(O)C3O)C3COC(=O)C23)OCO4)cc(OC)c1O` (stereo unspecified) [Etoposide_1] registered a collision cross section of 222.47 Å². In data set [2] (setting [4]), the “reversed-phase LC retention time” value came out at 11.9 min.

On to `COc1cc(C2c3cc4c(cc3C(OC3OC5COC(C)OC5C(O)C3O)C3COC(=O)C23)OCO4)cc(OC)c1O` (stereo unspecified) [Etoposide_2], for which the collision cross section in data set [1] (setting [4]) turned out to be 241.7 Å². In addition, the “reversed-phase LC retention time” value in data set [2] (setting [4]) was 11.7 min.

`C=C1C[C@@H]2[C@H](CC[C@]3(C)C(=O)CC[C@@H]23)[C@@]2(C)C=CC(=O)C=C12` [Exemestane] displayed a collision cross section in data set [1] (setting [3]) of 173.31 Å². In addition, the “reversed-phase LC retention time” value in data set [2] (setting [3]) turned out to be 13.9 min.

For `CSC1=N[C@@](C)(c2ccccc2)C(=O)N1Nc1ccccc1` [Fenamidone], the collision cross section in data set [1] (setting [3]) was 173.13 Å². The “reversed-phase LC retention time” value in data set [2] (setting [3]) came out at 14.1 min.

In the case of `CC1(C(=O)Nc2ccc(O)c(Cl)c2Cl)CCCCC1` [Fenhexamid], the collision cross section in data set [1] (setting [3]) came out at 166.46 Å²; in data set [1] (setting [4]), 172.09 Å². In addition, the “reversed-phase LC retention time” value in data set [2] (setting [3]) worked out at 14.8 min; in data set [2] (setting [4]), 14.6 min.

With `CC(Oc1ccc(Oc2nc3ccc(Cl)cc3o2)cc1)C(=O)O` (stereo unspecified) [Fenoxaprop-P], the collision cross section amounted to 181.01 Å² in data set [1] (setting [3]) and 189.16 Å² in data set [1] (setting [4]). The “reversed-phase LC retention time” value in data set [2] (setting [3]) amounted to 15.3 min; in data set [2] (setting [4]), 13.9 min.

`CCOC(=O)NCCOc1ccc(Oc2ccccc2)cc1` [Fenoxycarb]: the collision cross section in data set [1] (setting [3]) is on record as 180.55 Å². Besides, in data set [2] (setting [3]), the “reversed-phase LC retention time” value worked out at 15.2 min.

For the compound `CC(Cc1ccc(C(C)(C)C)cc1)CN1CCCCC1` (stereo unspecified) [Fenpropidin], in data set [1] (setting [3]), the collision cross section is recorded as 166.93 Å². In addition, the “reversed-phase LC retention time” value in data set [2] (setting [3]) came to 13.6 min.

Consider `CC(Cc1ccc(C(C)(C)C(=O)O)cc1)CN1CC(C)OC(C)C1` (stereo unspecified) [Fenpropimorph acid], for which the collision cross section in data set [1] (setting [3]) is recorded as 177.46 Å²; in data set [1] (setting [4]), 188.8 Å². The “reversed-phase LC retention time” value is 10.8 min in data set [2] (setting [3]) and 14.3 min in data set [2] (setting [4]).

Compound `CC(Cc1ccc(C(C)(C)C)cc1)CN1C[C@@H](C)O[C@@H](C)C1` (stereo partly specified) [Fenpropimorph] returned a collision cross section in data set [1] (setting [3]) of 174.32 Å². Moreover, the “reversed-phase LC retention time” value in data set [2] (setting [3]) worked out at 13.8 min.

As to `Cc1nn(C)c(Oc2ccccc2)c1/C=N/OCc1ccc(C(=O)OC(C)(C)C)cc1` [Fenpyroximate], in data set [1] (setting [3]), the collision cross section worked out at 203.95 Å². In data set [2] (setting [3]), the “reversed-phase LC retention time” value was found to be 17.5 min.

`COP(=S)(OC)Oc1ccc(SC)c(C)c1` [Fenthion] had a collision cross section in data set [1] (setting [3]) of 160.76 Å². For the same compound, the “reversed-phase LC retention time” value in data set [2] (setting [3]) was found to be 14.1 min.

For `CN(C)C(=O)Nc1ccccc1` [Fenuron], the collision cross section in data set [1] (setting [3]) worked out at 132.76 Å². For the same compound, the “reversed-phase LC retention time” value in data set [2] (setting [3]) was 8.82 min.

As to `CC(C)(C(=O)O)c1ccc(C(O)CCCN2CCC(C(O)(c3ccccc3)c3ccccc3)CC2)cc1` (stereo unspecified) [Fexofenadine], the figures for the collision cross section in data set [1] (setting [3]) and in data set [1] (setting [4]) were 223.95 Å² and 224.37 Å², respectively. The “reversed-phase LC retention time” value was found to be 12.8 min in data set [2] (setting [3]) and 14.2 min in data set [2] (setting [4]).

In the case of `CC(C)(C)NC(=O)[C@H]1CC[C@H]2[C@@H]3CC[C@H]4NC(=O)C=C[C@]4(C)[C@H]3CC[C@]12C` [Finasteride], the figures for the collision cross section in data set [1] (setting [3]) and in data set [1] (setting [4]) were 203.71 Å² and 198.56 Å², respectively. Also, the “reversed-phase LC retention time” value came out at 14.6 min in data set [2] (setting [3]) and 15 min in data set [2] (setting [4]).

The compound `N#Cc1nn(-c2c(Cl)cc(C(F)(F)F)cc2Cl)c(N)c1C(F)(F)F` [Fipronil desulfinyl] yielded a collision cross section in data set [1] (setting [4]) of 168.16 Å². In addition, the “reversed-phase LC retention time” value in data set [2] (setting [4]) was found to be 15.4 min.

Turning to `N#Cc1nn(-c2c(Cl)cc(C(F)(F)F)cc2Cl)c(N)c1SC(F)(F)F` [Fipronil sulfide], the collision cross section in data set [1] (setting [4]) was 173.94 Å². Besides, the “reversed-phase LC retention time” value in data set [2] (setting [4]) came to 15.8 min.

The compound `N#Cc1nn(-c2c(Cl)cc(C(F)(F)F)cc2Cl)c(N)c1S(=O)(=O)C(F)(F)F` [Fipronil sulfone] yielded a collision cross section in data set [1] (setting [4]) of 178.27 Å². The “reversed-phase LC retention time” value in data set [2] (setting [4]) is 16.1 min.
